Values quoted from earlier work as cited in patent US20120178700A1, “PEPTIDOMIMETIC MACROCYCLES” (Aileron Therapeutics, Inc., priority 2008, published 2012).

Tests used:
[1] = test system: Myc family proteins
[2] = molecular target: c-Myc/Max dimerization (Homo sapiens, UniProt P01106); settings: for preference for inhibition of c-Myc/Max association over related transcription factors: in the presence of their DNA binding motif in vitro
[3] = test system: c-Myc-dependent oncogenic transformation; settings: versus transformation dependent on Jun

Sequence of c-Myc/Max dimerization (P01106 whole entry): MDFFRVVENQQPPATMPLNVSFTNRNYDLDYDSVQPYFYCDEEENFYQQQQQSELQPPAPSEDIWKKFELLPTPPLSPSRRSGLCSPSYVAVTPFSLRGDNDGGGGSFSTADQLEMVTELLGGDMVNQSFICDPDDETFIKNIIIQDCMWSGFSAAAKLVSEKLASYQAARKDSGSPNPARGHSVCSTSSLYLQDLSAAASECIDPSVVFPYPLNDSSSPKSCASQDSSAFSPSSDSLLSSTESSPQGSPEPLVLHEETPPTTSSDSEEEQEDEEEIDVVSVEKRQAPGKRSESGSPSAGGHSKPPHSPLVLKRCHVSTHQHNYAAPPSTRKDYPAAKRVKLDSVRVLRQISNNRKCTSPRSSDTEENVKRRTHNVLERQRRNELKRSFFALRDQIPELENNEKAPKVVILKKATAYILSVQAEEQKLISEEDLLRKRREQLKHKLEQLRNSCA

Compound: CN(C)CCCNc1cc(O)c2c(c1O)C(=O)c1ccccc1C2=O [MYRA-A]
- inhibition of DNA binding of Myc family proteins [1]: inhibit DNA binding
- c-Myc/Max dimerization [2]: without interfering

Compound: O=C(NCc1cccs1)c1cc2nc(-c3cccs3)cc(C(F)(F)F)n2n1 [Mycro2]
- preference for inhibition of c-Myc/Max association over related transcription factors [2]: show a preference

Compound: COc1ccc(CNC(=O)c2cc3nc(-c4cccs4)cc(C(F)(F)F)n3n2)cc1 [Mycro1]
- preference for inhibition of c-Myc/Max association over related transcription factors [2]: show a preference

Compound: COc1ccc(CN(C(=O)c2ccccn2)C(C(=O)NC2CCCCC2)c2ccc3cc(OCC(=O)OC(C)(C)C)ccc3c2)cc1 (centres unmarked) [NY2267]
- inhibition of c-Myc-dependent oncogenic transformation [3]: inhibited c-Myc-dependent oncogenic transformation with preference over transformation dependent on Jun
